Laboratory results from ChEMBL document CHEMBL1201862, “PubChem BioAssay data set” (2004).
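Values below derive from 48-hour exposures of cells grown in 96-well plates, with endpoints linearly interpolated between the two concentrations bracketing the appropriate inhibition level. GI50: concentration for 50% inhibition of growth.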 Calls of active or inactive are those of the source. Cut-off read from the data, not from the text of the source: active = GI50 up to about 1.1 µM and inactive = higher.

Assays:
Assay in all cases: NCI tumour cell line growth inhibition, 48 h
A549 = tested on: A549
ACHN = tested on: ACHN
COLO 205 = tested on: COLO 205
EKVX = tested on: EKVX
HCC 2998 = tested on: HCC 2998
HCT-15 = tested on: HCT-15
HL-60 = tested on: HL-60
HOP-62 = tested on: HOP-62
HT-29 = tested on: HT-29
M14 = tested on: M14
MOLT-4 = tested on: MOLT-4
NCI-H226 = tested on: NCI-H226
NCI-H460 = tested on: NCI-H460
NCI-H522 = tested on: NCI-H522
OVCAR-8 = tested on: OVCAR-8
SF-539 = tested on: SF-539
SK-MEL-2 = tested on: SK-MEL-2
SK-OV-3 = tested on: SK-OV-3
SNB-19 = tested on: SNB-19
UO-31 = tested on: UO-31

Row | Compound | GI50 (A549) | GI50 (ACHN) | GI50 (COLO 205) | GI50 (EKVX) | GI50 (HCC 2998) | GI50 (HCT-15) [µM] | GI50 (HL-60) | GI50 (HOP-62) | GI50 (HT-29) | GI50 (M14) | GI50 (MOLT-4) | GI50 (NCI-H226) | GI50 (NCI-H460) | GI50 (NCI-H522) | GI50 (OVCAR-8) | GI50 (SF-539) | GI50 (SK-MEL-2) | GI50 (SK-OV-3) | GI50 (SNB-19) | GI50 (UO-31)
1 | CNS(=O)(=O)NN(C)S(=O)(=O)c1ccc(F)cc1 | > 100 µM (inactive) | > 100 µM (inactive) | > 100 µM (inactive) | > 100 µM (inactive) | > 100 µM (inactive) | > 100 | > 100 µM (inactive) | > 100 µM (inactive) | > 100 µM (inactive) | > 100 µM (inactive) | > 100 µM (inactive) | > 100 µM (inactive) | 40.7 µM (inactive) | > 100 µM (inactive) | > 100 µM (inactive) | > 100 µM (inactive) | > 100 µM (inactive) | > 100 µM (inactive) | > 100 µM (inactive) | > 100 µM (inactive)
2 | CCN(CC)/[N+]([O-])=N/OC | > 100 µM (inactive) | > 100 µM (inactive) | – | > 100 µM (inactive) | > 100 µM (inactive) | > 100 | > 100 µM (inactive) | > 100 µM (inactive) | > 100 µM (inactive) | > 100 µM (inactive) | > 100 µM (inactive) | > 100 µM (inactive) | > 100 µM (inactive) | > 100 µM (inactive) | > 100 µM (inactive) | > 100 µM (inactive) | > 100 µM (inactive) | > 100 µM (inactive) | > 100 µM (inactive) | > 100 µM (inactive)
3 | CN(CCCNc1ccc2ncn3c4ccccc4c(=O)c1c23)CCCN1C(=O)c2cccc3cc([N+](=O)[O-])cc(c23)C1=O | 0.00628 µM (active) | 0.0012 µM (active) | 0.00815 µM (active) | 0.0561 µM (active) | 0.0115 µM (active) | 0.0153 | 0.0358 µM (active) | 0.0472 µM (active) | 0.00149 µM (active) | 0.0481 µM (active) | 0.00565 µM (active) | 0.00603 µM (active) | 0.00295 µM (active) | 0.00775 µM (active) | 0.0205 µM (active) | 0.00548 µM (active) | 1.58 µM (inactive) | 1.28 µM (inactive) | 0.0401 µM (active) | 0.015 µM (active)
4 | CNC1=C(C)C(=O)C2=C(C1=O)C(COC(N)=O)C1(OC)C3NC3CN21 (stereo not drawn) | 0.106 µM (active) | 0.16 µM (active) | 0.187 µM (active) | 22 µM (inactive) | 0.313 µM (active) | 0.391 | 2.02 µM (inactive) | 0.092 µM (active) | 0.207 µM (active) | 0.22 µM (active) | 3.68 µM (inactive) | 0.543 µM (active) | < 0.01 µM (active) | 0.427 µM (active) | 0.644 µM (active) | 0.183 µM (active) | 1.15 µM (inactive) | 1.27 µM (inactive) | 0.268 µM (active) | 2.19 µM (inactive)
5 | Oc1ccc2ccccc2c1/N=N/c1cccc2ccccc12 | > 100 µM (inactive) | > 100 µM (inactive) | > 100 µM (inactive) | 84.9 µM (inactive) | > 100 µM (inactive) | > 100 | > 100 µM (inactive) | 48.5 µM (inactive) | – | > 100 µM (inactive) | > 100 µM (inactive) | > 100 µM (inactive) | > 100 µM (inactive) | 52.4 µM (inactive) | 44.1 µM (inactive) | 24.3 µM (inactive) | > 100 µM (inactive) | 52.6 µM (inactive) | 47.6 µM (inactive) | > 100 µM (inactive)
6 | CC1(C)O[C@@H](C[C@]2(C#N)C[C@H](CCl)OC(C)(C)O2)C[C@@H](C#N)O1 | > 100 µM (inactive) | > 100 µM (inactive) | > 100 µM (inactive) | > 100 µM (inactive) | > 100 µM (inactive) | > 100 | > 100 µM (inactive) | > 100 µM (inactive) | > 100 µM (inactive) | > 100 µM (inactive) | > 100 µM (inactive) | > 100 µM (inactive) | > 100 µM (inactive) | > 100 µM (inactive) | > 100 µM (inactive) | > 100 µM (inactive) | > 100 µM (inactive) | > 100 µM (inactive) | > 100 µM (inactive) | > 100 µM (inactive)
7 | O=C1C(=O)c2ccccc2C=C1[N+](=O)[O-] | > 100 µM (inactive) | > 100 µM (inactive) | > 100 µM (inactive) | 19.3 µM (inactive) | 80.9 µM (inactive) | 32.7 | 22.7 µM (inactive) | > 100 µM (inactive) | > 100 µM (inactive) | 71.1 µM (inactive) | 29.3 µM (inactive) | > 100 µM (inactive) | 30.2 µM (inactive) | 34.9 µM (inactive) | 33.7 µM (inactive) | 43.1 µM (inactive) | 28.2 µM (inactive) | > 100 µM (inactive) | > 100 µM (inactive) | > 100 µM (inactive)
8 | C=C1C[C@@H]2C[C@@H](C)CC(O)[C@]2(CCCN)C1O (stereo partly drawn) | > 100 µM (inactive) | > 100 µM (inactive) | > 100 µM (inactive) | > 100 µM (inactive) | > 100 µM (inactive) | – | > 100 µM (inactive) | > 100 µM (inactive) | > 100 µM (inactive) | > 100 µM (inactive) | > 100 µM (inactive) | > 100 µM (inactive) | > 100 µM (inactive) | > 100 µM (inactive) | > 100 µM (inactive) | > 100 µM (inactive) | > 100 µM (inactive) | > 100 µM (inactive) | > 100 µM (inactive) | > 100 µM (inactive)
9 | O=C1CNc2cc(N3CCCCC3)ccc2N1 | > 100 µM (inactive) | > 100 µM (inactive) | – | 21.2 µM (inactive) | > 100 µM (inactive) | > 100 | > 100 µM (inactive) | > 100 µM (inactive) | 8.32 µM (inactive) | 66.1 µM (inactive) | > 100 µM (inactive) | 16.3 µM (inactive) | > 100 µM (inactive) | > 100 µM (inactive) | > 100 µM (inactive) | > 100 µM (inactive) | > 100 µM (inactive) | > 100 µM (inactive) | > 100 µM (inactive) | > 100 µM (inactive)
10 | C=C(C)C(=O)O[C@H]1CC2=C[C@@H](C[C@@]3(C)O[C@@H]3[C@H]3OC(=O)C(=C)[C@@H]31)OC2=O [ELEPHANTOPIN] | 7.33 µM (inactive) | – | 0.885 µM (active) | 2.08 µM (inactive) | 5.11 µM (inactive) | 0.927 | 0.486 µM (active) | 52.5 µM (inactive) | 2.48 µM (inactive) | – | 0.412 µM (active) | 10.2 µM (inactive) | 4.86 µM (inactive) | 0.593 µM (active) | 0.505 µM (active) | 3.57 µM (inactive) | 4.34 µM (inactive) | 11.5 µM (inactive) | 13.3 µM (inactive) | 6.07 µM (inactive)
11 | COc1cc(O)c2c(c1)C(=O)c1cc(C)cc(O)c1C2=O [PHYSCION] | > 100 µM (inactive) | > 100 µM (inactive) | > 100 µM (inactive) | > 100 µM (inactive) | > 100 µM (inactive) | – | > 100 µM (inactive) | > 100 µM (inactive) | > 100 µM (inactive) | > 100 µM (inactive) | > 100 µM (inactive) | > 100 µM (inactive) | > 100 µM (inactive) | 78.5 µM (inactive) | > 100 µM (inactive) | > 100 µM (inactive) | > 100 µM (inactive) | > 100 µM (inactive) | > 100 µM (inactive) | > 100 µM (inactive)
